Results published in PubChem BioAssay AID330 (DTP/NCI, 2004).
Values joined by “and” are separate entries in the source; they are usually repeats but may differ in a detail not shown here. Identical values can stand only once. Inconclusive results and toxic doses are left out.

System: P388 leukemia ip, CD2F1 mice, survival T/C
Experiment: NCI In Vivo Anticancer Drug Screen. Data for tumor model P388 Leukemia (intraperitoneal) in CD2F1 (CDF1) mice
Settings: endpoint: median survival time, higher = longer survival
In short: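 Mice carrying the transplanted tumor received test compound or vehicle. Survival was recorded in each group, and the value is the treated-group measurement divided by that of the vehicle-treated control group.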

[1] = dose: 100.0 mg/kg/injection, schedule: Q04DX003 (ip), vehicle: saline
[2] = dose: 200.0 mg/kg/injection, schedule: Q04DX003 (ip), vehicle: saline
[3] = dose: 400.0 mg/kg/injection, schedule: Q04DX003 (ip), vehicle: saline
[4] = dose: 100.0 mg/kg/injection, schedule: Q01DX001 (ip), vehicle: saline with Tween-80
[5] = dose: 50.0 mg/kg/injection, schedule: Q01DX005 (ip), vehicle: saline with Tween-80
[6] = dose: 60.0 mg/kg/injection, schedule: Q01DX005 (ip), vehicle: saline with Tween-80
[7] = dose: 50.0 mg/kg/injection, schedule: Q01DX005 (ip), vehicle: Klucel (hydroxypropylcellulose) (HPC)
[8] = dose: 50.0 mg/kg/injection, schedule: Q01DX009 (ip), vehicle: saline
[9] = dose: 100.0 mg/kg/injection, schedule: Q01DX009 (ip), vehicle: saline
[10] = dose: 120.0 mg/kg/injection, schedule: Q01DX005 (ip), vehicle: saline with Tween-80

O=c1cc(-c2ccccc2)oc2c(O)c(O)cc(O)c12
T/C (dose: 50.0 mg/kg/injection, schedule: Q04DX003 (ip), vehicle: Klucel (hydroxypropylcellulose) (HPC)): 105 % of control
T/C (dose: 100.0 mg/kg/injection, schedule: Q04DX003 (ip), vehicle: Klucel (hydroxypropylcellulose) (HPC)): 104 % of control
T/C (dose: 200.0 mg/kg/injection, schedule: Q04DX003 (ip), vehicle: Klucel (hydroxypropylcellulose) (HPC)): 100 % of control
T/C (dose: 400.0 mg/kg/injection, schedule: Q04DX003 (ip), vehicle: Klucel (hydroxypropylcellulose) (HPC)): 92 % of control

O=C1CCC(C(=O)O)N1 (stereo unspecified)
T/C [1]: 95 % of control
T/C [2]: 97 % of control
T/C [3]: 94 % of control

CC(N=Cc1cccs1)c1ccccc1 (stereo unspecified)
T/C [1]: 98 % of control
T/C [2]: 95 % of control
T/C [3]: 99 % of control

COc1cc2c(ccc3cc4cccc[n+]4cc32)c(Br)c1OC
T/C (dose: 12.5 mg/kg/injection, schedule: Q01DX009 (ip), vehicle: saline sonified): 104 % of control
T/C (dose: 25.0 mg/kg/injection, schedule: Q01DX009 (ip), vehicle: saline sonified): 118 % of control
T/C (dose: 50.0 mg/kg/injection, schedule: Q01DX009 (ip), vehicle: saline sonified): 113 % of control

O=C(NC(=S)c1cccs1)NS(=O)(=O)c1ccc(Cl)cc1
T/C (dose: 25.0 mg/kg/injection, schedule: Q01DX001 (ip), vehicle: saline with Tween-80): 98 % of control
T/C (dose: 50.0 mg/kg/injection, schedule: Q01DX001 (ip), vehicle: saline with Tween-80): 98 % of control
T/C [4]: 98 % of control

CCSc1nc(N)c(Br)c(Sc2nc(N)nc3nc[nH]c23)n1
T/C [5]: 103 % of control
T/C (dose: 100.0 mg/kg/injection, schedule: Q01DX005 (ip), vehicle: saline with Tween-80): 101 % of control
T/C (dose: 200.0 mg/kg/injection, schedule: Q01DX005 (ip), vehicle: saline with Tween-80): 97 % of control

O=S(=O)(O)SCCNCCCCC1CCCCC1
T/C (dose: 3.75 mg/kg/injection, schedule: Q01DX005 (ip), vehicle: saline with Tween-80): 99 % of control
T/C (dose: 7.5 mg/kg/injection, schedule: Q01DX005 (ip), vehicle: saline with Tween-80): 90 % of control
T/C (dose: 15.0 mg/kg/injection, schedule: Q01DX005 (ip), vehicle: saline with Tween-80): 101 % of control and 104 % of control
T/C (dose: 30.0 mg/kg/injection, schedule: Q01DX005 (ip), vehicle: saline with Tween-80): 111 % of control
T/C [6]: 120 % of control

O=C1OC(Cl)C=C1c1ccccc1 (stereo unspecified)
T/C (dose: 50.0 mg/kg/injection, schedule: Q01DX009 (ip), vehicle: suspension in saline): 95 % of control
T/C (dose: 100.0 mg/kg/injection, schedule: Q01DX009 (ip), vehicle: suspension in saline): 101 % of control
T/C (dose: 200.0 mg/kg/injection, schedule: Q01DX009 (ip), vehicle: suspension in saline): 101 % of control

COC(=O)C1=C(C(=O)OC)[C]([Hg][CH3])(C(C)=O)N=N1 (stereo unspecified)
T/C (dose: 1.56 mg/kg/injection, schedule: Q01DX009 (ip), vehicle: saline): 88 % of control
T/C (dose: 3.12 mg/kg/injection, schedule: Q01DX009 (ip), vehicle: saline): 88 % of control
T/C (dose: 6.25 mg/kg/injection, schedule: Q01DX009 (ip), vehicle: saline): 93 % of control
T/C (dose: 12.5 mg/kg/injection, schedule: Q01DX009 (ip), vehicle: saline): 106 % of control

COC(=O)C1C2C1C1C=CC2n2c(=O)n(-c3ccccc3)c(=O)n21 (stereo unspecified)
T/C [7]: 97 % of control
T/C (dose: 100.0 mg/kg/injection, schedule: Q01DX005 (ip), vehicle: Klucel (hydroxypropylcellulose) (HPC)): 97 % of control
T/C (dose: 200.0 mg/kg/injection, schedule: Q01DX005 (ip), vehicle: Klucel (hydroxypropylcellulose) (HPC)): 110 % of control

N=C1/C(=C\c2ccccc2O)C(=O)NN1C(=O)c1ccncc1
T/C (dose: 100.0 mg/kg/injection, schedule: Q01DX001 (ip), vehicle: saline): 103 % of control
T/C (dose: 200.0 mg/kg/injection, schedule: Q01DX001 (ip), vehicle: saline): 98 % of control
T/C (dose: 400.0 mg/kg/injection, schedule: Q01DX001 (ip), vehicle: saline): 104 % of control

CCC/C(=N\NC(=S)N1CCCCCC1)c1ccccn1
T/C (dose: 25.0 mg/kg/injection, schedule: Q01DX005 (ip), vehicle: saline with Tween-80): 117 % of control
T/C [5]: 124 % of control

Cc1cc2nc(C(C)(C)F)c(=O)[nH]c2cc1C
T/C [4]: 102 % of control
T/C (dose: 200.0 mg/kg/injection, schedule: Q01DX001 (ip), vehicle: saline with Tween-80): 94 % of control
T/C (dose: 400.0 mg/kg/injection, schedule: Q01DX001 (ip), vehicle: saline with Tween-80): 96 % of control

O=C(Nc1ccc([N+](=O)[O-])cc1)Nc1nccs1
T/C (dose: 12.5 mg/kg/injection, schedule: Q01DX009 (ip), vehicle: distilled water + Tween-80): 108 % of control and 112 % of control and 115 % of control
T/C (dose: 25.0 mg/kg/injection, schedule: Q01DX009 (ip), vehicle: distilled water + Tween-80): 120 % of control
T/C (dose: 50.0 mg/kg/injection, schedule: Q01DX009 (ip), vehicle: distilled water + Tween-80): 119 % of control

CCOP(=S)(Oc1cnn(C)c(=O)c1OC)OC(C)C (stereo unspecified)
T/C (dose: 0.78 mg/kg/injection, schedule: Q01DX005 (ip), vehicle: saline with Tween-80): 98 % of control
T/C (dose: 1.56 mg/kg/injection, schedule: Q01DX005 (ip), vehicle: saline with Tween-80): 100 % of control
T/C (dose: 3.13 mg/kg/injection, schedule: Q01DX005 (ip), vehicle: saline with Tween-80): 98 % of control

CCNCc1c(C)[nH]c2ccc(N(C)C)cc2c1=O
T/C [8]: 92 % of control
T/C [9]: 108 % of control

C1=CCC(CC[Si]23OCCN(CCO2)CCO3)CC1 (stereo unspecified)
T/C (dose: 12.5 mg/kg/injection, schedule: Q01DX005 (ip), vehicle: Klucel (hydroxypropylcellulose) (HPC)): 103 % of control
T/C (dose: 25.0 mg/kg/injection, schedule: Q01DX005 (ip), vehicle: Klucel (hydroxypropylcellulose) (HPC)): 96 % of control
T/C [7]: 101 % of control and 96 % of control

CC(=O)Oc1cc2c(c(OC(C)=O)n1)C(C)N(Cc1ccccc1)C2=O (stereo unspecified)
T/C (dose: 50.0 mg/kg/injection, schedule: Q01DX009 (ip), vehicle: Klucel (hydroxypropylcellulose) (HPC)): 106 % of control
T/C (dose: 100.0 mg/kg/injection, schedule: Q01DX009 (ip), vehicle: Klucel (hydroxypropylcellulose) (HPC)): 106 % of control
T/C (dose: 200.0 mg/kg/injection, schedule: Q01DX009 (ip), vehicle: Klucel (hydroxypropylcellulose) (HPC)): 115 % of control

c1ccc(-n2ncc3ccc4cccn4c32)cc1
T/C [6]: 108 % of control
T/C [10]: 111 % of control
T/C (dose: 240.0 mg/kg/injection, schedule: Q01DX005 (ip), vehicle: saline with Tween-80): 120 % of control

CCSc1nc2ccc(NCn3nnc4ccccc43)cc2s1
T/C (dose: 60.0 mg/kg/injection, schedule: Q01DX005 (ip), vehicle: Klucel (hydroxypropylcellulose) (HPC)): 98 % of control
T/C (dose: 120.0 mg/kg/injection, schedule: Q01DX005 (ip), vehicle: Klucel (hydroxypropylcellulose) (HPC)): 89 % of control
T/C (dose: 240.0 mg/kg/injection, schedule: Q01DX005 (ip), vehicle: Klucel (hydroxypropylcellulose) (HPC)): 90 % of control

COC1C(C)OC(OC2CC(C)(O)C(C(=O)O)c3cc4c(c(O)c32)C(=O)c2c(O)cc3c(c2C4=O)OC2OC3(C)C(O)C(N(C)C)C2O)C(OC)C1(C)OC (stereo unspecified)
T/C (dose: 1.25 mg/kg/injection, schedule: Q04DX003 (ip), vehicle: other): 119 % of control
T/C (dose: 2.5 mg/kg/injection, schedule: Q04DX003 (ip), vehicle: other): 113 % of control
T/C (dose: 5.0 mg/kg/injection, schedule: Q04DX003 (ip), vehicle: other): 122 % of control
T/C (dose: 20.0 mg/kg/injection, schedule: Q04DX003 (ip), vehicle: other): 155 % of control

CC(C)CC(NC(=O)C(Cc1ccccc1)NC(=O)CNC(=O)CNC(=O)C(N)Cc1ccc(O)cc1)C(N)=O (stereo unspecified)
T/C (dose: 8.75 mg/kg/injection, schedule: Q01DX005 (ip), vehicle: saline): 108 % of control
T/C (dose: 17.5 mg/kg/injection, schedule: Q01DX005 (ip), vehicle: saline): 110 % of control
T/C (dose: 35.0 mg/kg/injection, schedule: Q01DX005 (ip), vehicle: saline): 104 % of control
T/C (dose: 70.0 mg/kg/injection, schedule: Q01DX005 (ip), vehicle: saline): 112 % of control
T/C (dose: 140.0 mg/kg/injection, schedule: Q01DX005 (ip), vehicle: saline): 108 % of control

CCCC(=O)c1cc(-c2cc(C(=O)CCC)nc(N)n2)nc(N)n1
T/C [6]: 99 % of control
T/C [10]: 107 % of control

O=S1(=O)CCN(c2ccccc2)CC1
T/C [8]: 96 % of control
T/C [9]: 98 % of control
T/C (dose: 200.0 mg/kg/injection, schedule: Q01DX009 (ip), vehicle: saline): 95 % of control
